Experimental data taken from patent US9089509B2, “Method of treatment of age-related macular degeneration” (YEDA RESEARCH AND DEVELOPMENT CO., LTD., priority 2006, dated 2015).

Columns and labels:
[1] = tested on: neural stem/progenitor cells (NPCs) co-cultured with microglia; test: Co-culture of GFP-expressing neural progenitor cells with treated microglia, neurogenesis (GFP+/βIII-T+ cells); type: cell-based, mouse; details: cytokine 10 ng/ml added for 48 h after 48 h aggregated Aβ(1-40) 5 μM
Experimental: Coronal sections (2 mm thick) of tissue containing the subventricular zone of the lateral ventricle were obtained from the brains of adult C57Bl/6J mice. The tissue was minced and then incubated for digestion at 37° C., 5% CO2 for 45 min in Earle's balanced salt solution containing 0.94 mg/ml papain (Worthington, Lakewood, N.J.) and 0.18 mg/ml of L-cysteine and EDTA. After centrifugation at 110×g for 15 min at room temperature, the tissue was mechanically dissociated by pipette trituration. Cells obtained from single-cell suspensions were plated (3500 cells/cm^2) in 75-cm^2 Falcon tissue-culture flasks (BD Biosciences, San Diego, Calif.), in neural stem/progenitor cell (NPC)-culturing medium [Dulbecco's modified Eagles's medium (DMEM)/F12 medium (Gibco/Invitrogen, Carlsbad, Calif.) containing 2 mM L-glutamine, 0.6% glucose, 9.6 μg/ml putrescine, 6.3 ng/ml progesterone, 5.2 ng/ml sodium selenite, 0.02 mg/ml insulin, 0.1 mg/ml transferrin, 2 μg/ml heparin (all from Sigma-Aldrich, Rehovot, Israel), fibroblast growth factor-2 (human recombinant, 20 ng/ml), and epidermal growth factor (human recombinant, 20 ng/ml; both from Peprotech, Rocky Hill, N.J.)]. Spheres were passaged every 4-6 days and replated as single cells. Green fluorescent protein (GFP)-expressing NPCs were obtained as previously described (Pluchino et al., 2003).
Brains from neonatal (P0-P1) C57Bl/6J mice were stripped of their meninges and minced with scissors under a dissecting microscope (Zeiss, Stemi DV4, Germany) in Leibovitz-15 medium (Biological Industries, Kibbutz Beit Ha-Emek, Israel). After trypsinization (0.5% trypsin, 10 min, 37° C./5% CO2), the tissue was triturated. The cell suspension was washed in culture medium for glial cells [DMEM supplemented with 10% fetal calf serum (FCS; Sigma-Aldrich, Rehovot), L-glutamine (1 mM), sodium pyruvate (1 mM), penicillin (100 U/ml), and streptomycin ([…])] and cultured at 37° C./5% CO2 in 75-cm^2 Falcon tissue-culture flasks (BD Biosciences) coated with poly-D-lysine (PDL) (10 mg/ml; Sigma-Aldrich, Rehovot) in borate buffer (2.37 g borax and 1.55 g boric acid dissolved in 500 ml sterile water, pH 8.4) for 1 h, then rinsed thoroughly with sterile, glass-distilled water. Half of the medium was changed after 6 h in culture and every 2nd day thereafter, starting on day 2, for a total culture time of 10-14 days. […]

microglia [2] = test: CD11c expression and morphology in primary culture of mouse microglia; type: cell-based
Experimental: Brains from neonatal (P0-P1) C57Bl/6J mice were stripped of their meninges and minced with scissors under a dissecting microscope (Zeiss, Stemi DV4, Germany) in Leibovitz-15 medium (Biological Industries, Kibbutz Beit Ha-Emek, Israel). After trypsinization (0.5% trypsin, 10 min, 37° C./5% CO2), the tissue was triturated. The cell suspension was washed in culture medium for glial cells [DMEM supplemented with 10% fetal calf serum (FCS; Sigma-Aldrich, Rehovot), L-glutamine (1 mM), sodium pyruvate (1 mM), penicillin (100 U/ml), and streptomycin ([…])] and cultured at 37° C./5% CO2 in 75-cm^2 Falcon tissue-culture flasks (BD Biosciences) coated with poly-D-lysine (PDL) (10 mg/ml; Sigma-Aldrich, Rehovot) in borate buffer (2.37 g borax and 1.55 g boric acid dissolved in 500 ml sterile water, pH 8.4) for 1 h, then rinsed thoroughly with sterile, glass-distilled water. Half of the medium was changed after 6 h in culture and every 2nd day thereafter, starting on day 2, for a total culture time of 10-14 days. Microglia were shaken off the primary mixed brain glial cell cultures (150 rpm, 37° C., 6 h) with maximum yields between days 10 and 14, seeded (10^5 cells/ml) onto PDL-pretreated 24-well plates (1 ml/well; Corning, N.Y., N.Y.), and grown in culture medium for microglia [RPMI-1640 medium (Sigma-Aldrich, Rehovot) supplemented with 10% FCS, L-glutamine (1 mM), sodium pyruvate (1 mM), β-mercaptoethanol ([…]), penicillin (100 U/ml), and streptomycin ([…])]. The cells were allowed to adhere to the surface of a PDL-coated culture flask (30 min, 37° C./5% CO2), and non-adherent cells were rinsed off.
Cover slips from co-cultures of NPCs and mouse microglia were washed with PBS, fixed as described above, treated with a permeabilization/blocking solution containing 10% FCS, 2% bovine serum albumin, 1% glycine, and 0.1% Triton X-100 (Sigma-Aldrich, Rehovot), and stained with a combination of mouse anti-[…] (anti-βIII-T) isoform C-terminus antibodies (1:500; Chemicon, Temecula, Calif.), rat anti-CD11b (MAC1; 1:50; BD—Pharmingen, Franklin Lakes, N.J.) and hamster anti-CD11c (1:100; eBioscience, San Diego, Calif.). To capture the microglia FITC- or Cy3-conjugated Bandeiraea simplicifolia isolectin B4 (IB-4; 1:50; Sigma-Aldrich, Rehovot) was used. To detect expression of human Aβ anti-Aβ (human amino-acid residues 1-17) (mouse, clone 6E10; Chemicon) was used.
On the basis of our previous findings, we suspected that the switch from a CD11b^+/CD11c^−/IGF-1^− to a CD11b^+/CD11c^+/IGF-I^+ microglial phenotype in the Cop-1 vaccinated Tg-AD mice might be attributable to IL-4. We examined this possibility in vitro. […] In contrast, the expression of CD11c induced by IL-4 was not transient. Quantification of the ability of IL-4 to induce CD11c expression even after the microglia were pretreated with Aβ is shown in FIG. 4D.
Thus, upregulation of CD11c on bone marrow derived myeloid cells by […] will allow the cells to reach injured sites and induce beneficial effect.

microglia [3] = test: Engulfment of aggregated Aβ(1-40) by activated microglia; type: cell-based, mouse; details: 10 ng/ml; Aβ(1-40) 5 μg/ml for 1 h, vs untreated microglia (FIG. 5)
Experimental: FIGS. 5A-5B show engulfment of aggregated Aβ by activated microglia. Microglia were treated with IL-4 (10 ng/ml) 24 h after seeding (MG(IL-4)) or were left untreated for 48 h (MG(−)). The media were then replaced by a labeling medium (DMEM containing 10 mg/ml bovine serum albumin), and aggregated Aβ(1-40) was added (5 μg/ml) for 1 h. Following incubation the cultures were fixed and immunostained with antibodies directed to human Aβ and co-stained for microglia (IB-4). (FIG. 5A) Confocal photomicrographs. (FIG. 5B) Quantitative analysis expressed as intensity per cell. Results of one of two experiments, each containing eight replicates (20-30 cells per replicate) per group are presented (means±SD).
Brains from neonatal (P0-P1) C57Bl/6J mice were stripped of their meninges and minced with scissors under a dissecting microscope (Zeiss, Stemi DV4, Germany) in Leibovitz-15 medium (Biological Industries, Kibbutz Beit Ha-Emek, Israel). After trypsinization (0.5% trypsin, 10 min, 37° C./5% CO2), the tissue was triturated. […]

microglia [4] = details: added to microglia activated by aggregated Aβ (Butovsky et al., 2005); cited from earlier work

In the case of “IL-4: recombinant mouse IL-4, a cytokine derived from T-helper (Th)-2 cells”, the “counteracting the negative effect of Aβ-activated microglia on NPC survival and differentiation” value [1] is reported as “partially counteracted”, the “CD11c expression by microglia” value (microglia [2]; 5-day microglia cultures, vs untreated (FIG. 4A)) is reported as “abundantly expressed” and the “persistence of induced CD11c expression as a function of time in culture” value (microglia [2]; FIG. 4C) is reported as “not transient”. For the same substance, the “CD11c expression by microglia pre-exposed to Aβ” value (microglia [2]; cytokine added 3 days after exposure to aggregated Aβ(1-40) (FIG. 4B, 4D)) was “able to induce them to express CD11c”, the “amoeboid morphology of Aβ-treated microglia” value (microglia [2]; on addition of cytokine, dendritic-like morphology (FIG. 4B)) was “reversible on addition of IL-4” and the “ability of microglia to engulf aggregated Aβ(1-40) (intracellular immunoreactive Aβ)” value (microglia [3]) was “did not interfere with the ability of microglia to engulf Aβ”. The “effect on Aβ-induced down-regulation of IGF-I, up-regulation of TNF-α and failure to act as APCs” value (microglia [4]) was “can reverse the down-regulation of IGF-I expression”.
